Measured values from US20160222014A1, “COMPOUNDS FOR REGULATING FAK AND/OR SRC PATHWAYS” (ASANA BIOSCIENCES, LLC, priority 2013, published 2016).

Target: T1, recombinant human FAK1 (Homo sapiens, UniProt Q05397)
T1 construct: fused on or other part: N-terminal 6xHis tag
Assay: FAK1 HTRF assay
Type: biochemical
Description: Active FAK1 was prepared for use in the Homogeneous Time-Resolved Fluorescence (HTRF) assay. Briefly, N-terminal 6 His tagged recombinant human FAK1, from residue 692-end (GenBank accession no. L13616) was expressed by Bacculovirus in sf9 cells. […] A 1.6 mg/mL (45 μM) stock was used in the HTRF assay at a final concentration of 10 nM.
Gastrin precursor (tyr87) biotinylated peptide which contains the residues surrounding tyrosine 87 (EEAY*GWM) of gastrin precursor was obtained (Cell Signaling Tech, Item no. 1310, Lot 7). The peptide was provided at a stock concentration of 6 μM, and used a final concentration of 0.5 μM in the HTRF assay.
10 mM stock in 100 μL Enzyme assay buffer pH7.4 was prepared freshly and used at a final concentration of 10 μM in the assay.
Powders were dissolved in 100% DMSO to a final stock concentration of 10 mM. The volume needed (in μL) to add for 10 mM=mg powder is 10^5/MW of compound. The final compound concentration in the assay plate started at 10 μM.
Pfizer FAK inhibitor PF-562271 (N-methyl-N-(3-(((2-((2-oxoindolin-5-yl)amino)-5-(trifluoromethyl)pyrimidin-4-yl)amino)methyl)pyridin-2-yl)methanesulfonamide) was prepared as per the reported procedure from US Patent Publication No. 2005/256145A1.
Streptavidin-Allophycocyanin was obtained (Prozyme, Cat. No. PJ25S. SA-APC was provided at a stock concentration of 2.06 mg/mL, where APC concentration was 11.6 μM and the streptavidin concentration was 15.5 μM. SA-APC was used at a final concentration of 12 nM in the assay (based on streptavidin concentration).
This reagent was obtained from Perkin ElmerAD0068. Europium-W1024-PT-66 Anti Phospho Tyrosine Ab is a monoclonal IgG1 that recognizes phospho tyrosine peptide. 100 μg/mL stock was used at a final concentration of 0.1 nM in the assay.
• 1. The compound dilutions were made by TECAN liquid handler as per the scheme in FIG. 1. • 2. 16 μL of diluted compound was added to each well of the assay plate using TECAN liquid handler. • 3. 20 μL of substrate mix (biotinylated gastrin precursor) was added into each well of the assay plate manually. • 4. 10 μL of enzyme mix (FAK1) was added to each well except mins. • 5. The plate was incubated at rt for 45 min with shaking. • 6. The HTRF mix was prepared and 75 μL was added to the HTRF plate. • 7. After the incubation was over, 10 μL of the mixture was transferred to the HTRF assay plate and incubated for 45 min at rt with shaking. • 8. The readings were taken in Pherastar in HTRF mode (ext 337 nm, em 665 & 620 nm) • 9. The results were analyzed using Graphpad Prism® software after calculation the z factor signal window and % inhibition. • 10. The IC50 was calculated.

T1 sequence (Q05397 422-680 limits assumed): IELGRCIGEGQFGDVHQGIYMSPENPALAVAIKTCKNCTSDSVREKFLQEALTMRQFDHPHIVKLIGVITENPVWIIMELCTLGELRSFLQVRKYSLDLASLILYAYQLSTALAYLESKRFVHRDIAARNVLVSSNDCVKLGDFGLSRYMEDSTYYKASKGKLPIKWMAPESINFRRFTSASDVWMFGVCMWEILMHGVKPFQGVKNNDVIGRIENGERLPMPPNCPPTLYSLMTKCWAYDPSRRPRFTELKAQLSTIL

Structure (SMILES) | IC50 [nM]
COc1cc(Nc2cc3c(ccn3Cc3cccnc3)cn2)cc(OC)c1OC [Example 6] | > 1000
CSc1cccc(Nc2ncc3cnn(Cc4cccnc4)c3n2)c1 [Example 10] | > 1000
CSc1cccc(Nc2cc3c(ccn3Cc3cccnc3)cn2)c1 [Example 13] | > 1000
O=C1CCc2cc(Nc3ncc4cnn(Cc5cccnc5)c4n3)ccc2N1 [Example 14] | > 1000
O=S(=O)(c1ccc(Nc2ncc3ccn(Cc4cccnc4)c3n2)cc1)C(F)F [Example 17] | > 1000
CN(c1ncccc1Cn1ccc2cnc(Nc3ccc(C#N)nc3)cc21)S(C)(=O)=O [Example 22] | > 1000
CN(c1ncccc1Cn1ccc2cnc(Nc3ccc(S(=O)(=O)C(F)F)cc3)cc21)S(C)(=O)=O [Example 25] | > 1000
O=C1CCc2cc(Nc3ncc4ccn(S(=O)(=O)c5ccc(OC(F)(F)F)cc5)c4n3)ccc2N1 [Example 41] | > 1000
CC(=O)Nc1cccc(Nc2ncc3ccn(S(=O)(=O)c4ccc(OC(F)(F)F)cc4)c3n2)c1 [Example 44] | > 1000
CC(=O)Nc1cccc(Nc2cc3c(ccn3S(=O)(=O)c3ccc(OC(F)(F)F)cc3)cn2)c1 [Example 46] | > 1000
CC(=O)Nc1ccc(Nc2cc3c(ccn3S(=O)(=O)c3ccc(OC(F)(F)F)cc3)cn2)cc1 [Example 47] | > 1000
O=C1CCc2cc(Nc3cc4c(ccn4S(=O)(=O)c4ccc(OC(F)(F)F)cc4)cn3)ccc2N1 [Example 48] | > 1000
O=S(=O)(c1ccc(OC(F)(F)F)cc1)n1ccc2cnc(Nc3ccc4ncsc4c3)cc21 [Example 49] | > 1000
COc1ccc(Nc2cc3c(ccn3S(=O)(=O)c3cccc(OC(F)(F)F)c3)cn2)cc1 [Example 53] | > 1000
CC(=O)Nc1cccc(Nc2cc3nn(Cc4ccccc4OC(F)F)cc3cn2)c1 [Example 63] | > 1000
CC(=O)Nc1ccc(Nc2cc3c(cn2)c(C)nn3Cc2cccnc2N(C)S(C)(=O)=O)nc1 [Example 70] | > 1000
CC(=O)Nc1ccccc1Nc1ncc2ccn(Cc3cccnc3N(C)S(C)(=O)=O)c2n1 [Example 71] | > 1000
CN(c1ncccc1Cn1ccc2cnc(Nc3ccc4c(c3)C(=O)NC4=O)nc21)S(C)(=O)=O [Example 74] | > 1000
O=C1CCc2cc(Nc3ncc4ccn(Cc5ccccc5OC(F)(F)F)c4n3)ccc2N1 [Example 83] | < 20

Structure (SMILES) | IC50 [nM]
CC(=O)Nc1cccc(Nc2cc3c(cn2)c(C)nn3S(=O)(=O)c2ccccc2OC(F)(F)F)c1 [Example 88] | > 1000
CC(=O)Nc1cccc(Oc2ncc3ccn(Cc4cccnc4N(C)S(C)(=O)=O)c3n2)c1 [Example 124] | > 1000
CNc1ccc(Nc2ncc3ccn(Cc4cccnc4N(C)S(C)(=O)=O)c3n2)cc1 [Example 156] | < 20
Cn1cnc(S(=O)(=O)n2ccc3cnc(Nc4ccc(N5CCNCC5)cc4)nc32)c1 [Example 236] | > 1000
CN(c1ccccc1Cn1ccc2cnc(Nc3ccc(N4CCNCC4)c(F)c3)cc21)S(C)(=O)=O [Example 322] | < 20
CC(C)C(=O)Nc1ccc(Nc2ncc3ccn(S(=O)(=O)c4cccc5cccnc45)c3n2)cc1 [Example 324] | < 20
O=C(C1CC1)N1CCN(c2ccc(Nc3cc4c(cn3)cnn4S(=O)(=O)c3cccc4cccnc34)cc2)CC1 [Example 352] | < 20
COc1cc(Nc2ncc3ccn(S(=O)(=O)c4cccc5cccnc45)c3n2)ccc1NC(=O)C1CC1 [Example 376] | < 20
CN(c1ncccc1CN1C(=O)C(C)(C)c2cnc(Nc3ccc(N4CCNCC4)cc3)nc21)S(C)(=O)=O [Example 380] | > 1000
O=S(=O)(c1cccc2cccnc12)n1ncc2cnc(Nc3ccc(N4CCOCC4)cc3)nc21 [Example 409] | < 20
O=S(=O)(c1cccc2cccnc12)n1ccc2cnc(Nc3ccc(N4CCCC(CO)C4)cc3)nc21 (centres unmarked) [Example 425] | < 20
CN(c1ccccc1Cn1ccc2cnc(Nc3ccc(N4CCNCC4)c(F)c3)nc21)S(C)(=O)=O [Example 438] | < 20
CN(c1ccccc1Cn1ccc2cnc(Nc3ccc(NC(=O)C4CC4)cc3)nc21)S(C)(=O)=O [Example 450] | < 20
C[C@@H]1CN(c2ccc(Nc3ncc4c(n3)N(S(=O)(=O)c3cccc5cccnc35)CC4(C)C)cc2)CCN1 [Example 470, (R)-5,5-dimethyl-N-(4-(3-methylpiperazin-1-yl)phenyl)-7-(quinolin-8-ylsulfonyl)-6,7-dihydro-5H-pyrrolo[2,3-d]pyrimidin-2-amine] | < 20
CNC(=O)Cc1ccccc1Cn1ccc2cnc(Nc3ccc(N4CCN(C)CC4)cc3)nc21 [Example 474] | > 1000
CC(C)N1CCN(c2ccc(Nc3ncc4ccn(Cc5ccccc5N(C)S(C)(=O)=O)c4n3)cc2)CC1 [Example 484] | < 20
C[C@H]1CN(C)CCN1c1ccc(Nc2ncc3ccn(Cc4ccccc4N(C)S(C)(=O)=O)c3n2)cc1 [Example 495] | < 20
CN1CCCN(c2ccc(Nc3cc4c(ccn4S(=O)(=O)c4ccccc4C#N)cn3)cc2)CC1 [Example 505] | < 20
CC1CN(c2ccc(Nc3ncc4ccn(Cc5ccccc5N(C)S(C)(=O)=O)c4n3)cc2)CC(C)N1 (centres unmarked) [Example 523] | < 20

Other lines, results leading:

IC50 [nM] | Structure (SMILES)
> 1000 | O=S(=O)(c1ccc(Nc2cc3c(ccn3Cc3cccnc3)cn2)cc1)C(F)F [Example 8]
> 1000 | O=S(=O)(c1ccc(Nc2ncc3ccn(Cc4ccccc4OC(F)F)c3n2)cc1)C(F)F [Example 9]
> 1000 | c1cncc(Cn2ccc3cnc(Nc4ccc5ncsc5c4)cc32)c1 [Example 15]
> 1000 | FC(F)(F)c1cccc(Nc2cc3c(ccn3Cc3cccnc3)cn2)c1 [Example 16]
> 1000 | O=S(=O)(c1ccc(Nc2cc3c(ccn3Cc3ccccc3OC(F)F)cn2)cc1)C(F)F [Example 19]
> 1000 | CC(=O)Nc1cccc(Nc2cc3c(ccn3-c3ccccn3)cn2)c1 [Example 37]
> 1000 | CS(=O)(=O)c1ccc(Nc2cc3c(ccn3S(=O)(=O)c3cccc(OC(F)(F)F)c3)cn2)cc1 [Example 51]
> 1000 | CS(=O)(=O)c1ccc(Nc2cc3c(ccn3S(=O)(=O)c3ccccc3OC(F)(F)F)cn2)cc1 [Example 57]
> 1000 | O=C1CCc2cc(Nc3cc4nn(Cc5ccccc5OC(F)F)cc4cn3)ccc2N1 [Example 67]
> 1000 | CC(=O)Nc1cccc(Nc2cc3c(cn2)c(C)nn3Cc2cccnc2N(C)S(C)(=O)=O)c1 [Example 68]
> 1000 | CC(=O)Nc1ccc(Nc2cc3c(cn2)c(C)nn3Cc2cccnc2N(C)S(C)(=O)=O)cc1 [Example 72]
> 1000 | O=S(=O)(c1ccccc1OC(F)(F)F)n1ncc2cnc(Nc3ccc4ncsc4c3)cc21 [Example 89]
< 20 | O=C1CCc2cc(Nc3cc4c(cn3)cnn4S(=O)(=O)c3cccc4cccnc34)ccc2N1 [Example 187]
< 20 | CN(c1ccccc1Cn1ncc2cnc(Nc3ccc(N4CCNCC4)cc3)cc21)S(C)(=O)=O [Example 222]
> 1000 | O=S(=O)(C1CCCC1)n1ccc2cnc(Nc3ccc(N4CCNCC4)cc3)nc21 [Example 238]
< 20 | CN(c1ccccc1Cn1ccc2cnc(Nc3ccc(N4CCNCC4)cc3)cc21)S(C)(=O)=O [Example 325]
< 20 | O=S(=O)(c1cccc2cccnc12)n1ncc2cnc(Nc3ccc(N4CCN(CCO)CC4)cc3)cc21 [Example 351]
< 20 | COc1cc(Nc2ncc3ccn(S(=O)(=O)c4cccc5cccnc45)c3n2)ccc1NC(=O)C1CCC1 [Example 373]
< 20 | CC1(C)CN(S(=O)(=O)c2cccc3cccnc23)c2nc(Nc3ccc(N4CCNCC4)cc3)ncc21 [Example 403]
< 20 | CN(c1ccccc1Cn1ccc2cnc(Nc3ccc(N4CCN5C(=O)CCC5C4)cc3)nc21)S(C)(=O)=O (centres unmarked) [Example 436]
< 20 | COc1cc(Nc2ncc3ccn(S(=O)(=O)c4cccc5cccnc45)c3n2)ccc1N1CC2CC1CN2C (centres unmarked) [Example 439]
< 20 | COc1cc(Nc2cc3c(ccn3S(=O)(=O)c3ccccc3C#N)cn2)ccc1N1CCN(C)CC1 [Example 492]
< 20 | CN1CCN(c2ccc(Nc3ncc4c(n3)N(S(=O)(=O)c3cccc5cccnc35)CC43CC3)cc2)CC1 [Example 499]
< 20 | CC1CN(c2ccc(Nc3cc4c(ccn4S(=O)(=O)c4ccccc4C#N)cn3)cc2)CC(C)N1 (centres unmarked) [Example 529]
